Measurements reported in ChEMBL document CHEMBL1152826, “Fatty acid synthesis is essential for survival of Cryptococcus neoformans and a potential fungicidal target” (2007).
Calls of active or inactive are those of the source. The rule behind the calls is not given here.

What was measured:
Cryptococcus neoformans [1] = experiment: Antifungal activity against Cryptococcus neoformans H99 expressing PCTR4-2/FAS2 assessed as logarithmic reduction in viable cells at 8 ug/ml in presence of bathocuproinedisulfonic acid; assay type: functional
Cryptococcus neoformans [2] = experiment: Antifungal activity against Cryptococcus neoformans H99 expressing PCTR4-2/FAS1 assessed as reduction in viable cells at 8 ug/ml after 72 hrs in presence of CuSO4 relative to CuSO4 alone; assay type: functional
Cryptococcus neoformans [3] = experiment: Fungicidal activity against Cryptococcus neoformans H99 expressing PCTR4-2/FAS2 after 72 hrs in presence of CuSO4; assay type: functional, organism-based
Cryptococcus neoformans [4] = experiment: Antifungal activity against Cryptococcus neoformans H99 expressing PCTR4-2/FAS1 assessed as logarithmic reduction in viable cells at 8 ug/ml in presence of bathocuproinedisulfonic acid; assay type: functional

Q: With `OC(Cn1cncn1)(Cn1cncn1)c1ccc(F)cc1F` [FLUCONAZOLE] as the compound, how does the Activity (Cryptococcus neoformans [1]) read?
A: 0.5

Q: And the “fold change (FC)” value (Cryptococcus neoformans [2])?
A: 100

Q: And the Activity (Cryptococcus neoformans [3])?
A: Active

Q: And the Activity (Cryptococcus neoformans [4])?
A: 0.5
